Measurements published in patent publication US3952012A, “Aroyl-substituted pyrroles” (McNeil Laboratories, Incorporated, priority 1974, dated 1976).

system: kaolin-induced rat paw edema; assay: kaolin-induced rat paw edema assay: inhibition of paw swelling, single oral dose; type: in vivo, rat (male Holtzman); conditions: 3.0 mg/kg
Procedure: In the kaolin-induced rat paw edema assay, the ability of a compound, when administered in a single oral dose, to inhibit the swelling of the rat paw injected with a standard amount (0.1 ml.) of 10% kaolin suspension in saline is measured. For comparative purposes, the activity of the compound to be tested is measured against that produced by the known anti-inflammatory agent, phenylbutazone. Male Holtzman rats are used in the assay.

| SMILES | inhibition [%] |
| --- | --- |
| Cc1cc(C(C)C(=O)O)n(C)c1C(=O)c1ccc(Cl)cc1 (stereo not drawn) [5-(p-Chlorobenzoyl)-1,4,α-trimethylpyrrole-2-acetic acid] | 37 |
| CCc1cc(CC(=O)O)n(C)c1C(=O)c1ccc(Cl)cc1 [5-(p-Chlorobenzoyl)-4-ethyl-1-methylpyrrole-2-acetic acid] | 29 |

same assay, conditions: 9.0 mg/kg

| SMILES | inhibition [%] |
| --- | --- |
| Cc1cc(C(C)C(=O)O)n(C)c1C(=O)c1ccc(Cl)cc1 (stereo not drawn) [5-(p-Chlorobenzoyl)-1,4,α-trimethylpyrrole-2-acetic acid] | 53 |
| CCc1cc(CC(=O)O)n(C)c1C(=O)c1ccc(Cl)cc1 [5-(p-Chlorobenzoyl)-4-ethyl-1-methylpyrrole-2-acetic acid] | 47 |

same assay, conditions: 80 mg/kg, comparator

| SMILES | inhibition |
| --- | --- |
| CCCCC1C(=O)N(c2ccccc2)N(c2ccccc2)C1=O [phenylbutazone, reference compound] | 30-40% |

same assay, conditions: 100 mg/kg, comparator

| SMILES | inhibition |
| --- | --- |
| CCCCC1C(=O)N(c2ccccc2)N(c2ccccc2)C1=O [phenylbutazone, reference compound] | 50-60% |

same assay, conditions: Rattus norvegicus, po, Table I; 12.5 mg/kg p.o.; read-out: % INHIBITION (Average 10 rats)

| SMILES | inhibition in vivo at 12.5 mg/kg [%] |
| --- | --- |
| Cc1ccccc1C(=O)c1ccc(CC(=O)O)n1C [5-(o-methylbenzoyl)-do, 1-Methyl-5-(o-toluoyl)-pyrrole-2-acetic acid] | 34 |

same assay, conditions: Rattus norvegicus, po, Table I; 25 mg/kg p.o.; read-out: % INHIBITION (Average 10 rats)

| SMILES | inhibition in vivo at 25 mg/kg [%] |
| --- | --- |
| Cc1ccc(C(=O)c2ccc(CC(=O)O)n2C)s1 [1-Methyl-5-(5-methyl-2-thenoyl)-pyrrole-2-acetic acid] | 48 |
| Cn1c(CC(=O)O)ccc1C(=O)c1ccc(Cl)cc1Cl [5-(2',4'-dichlorobenzoyl)-do, 5-(2',4'-Dichlorobenzoyl)-1-methylpyrrole-2-acetic acid] | 51 |
| Cn1c(CC(=O)O)ccc1C(=O)c1cccs1 [5-(2-thenoyl)-do, 1-Methyl-5-(2-thenoyl)-pyrrole-2-acetic acid] | 63 |
| Cn1c(CC(=O)O)ccc1C(=O)c1cccc(Cl)c1 [5-(m-chlorobenzoyl)-do, 5-(m-Chlorobenzoyl)-1-methylpyrrole-2-acetic acid] | 41 |
| Cn1c(CC(=O)O)ccc1C(=O)c1ccccc1Cl [5-(o-chlorobenzoyl)-do, 5-(o-Chlorobenzoyl)-1-methylpyrrole-2-acetic acid] | 44 |
| Cn1c(CC(=O)O)ccc1C(=O)c1ccc(Cl)cc1 [5-(p-Chlorobenzoyl)-1-methylpyrrole-2-acetic acid] | 47 |
| Cn1c(CC(=O)NO)ccc1C(=O)c1ccc(Cl)cc1 [5-(p-Chlorobenzoyl)-1-methylpyrrole-2-acetohydroxamic acid] | 33 |
| Cn1c(CCC(=O)O)ccc1C(=O)c1ccc(Cl)cc1 [5-(p-Chlorobenzoyl)-1-methylpyrrole-2-propionic acid] | 63 |
| CCN(CC)C(=O)Cc1ccc(C(=O)c2ccc(Cl)cc2)n1C [5-(p-Chlorobenzoyl)-N,N-diethyl-1-methylpyrrole-2-acetamide] | 36 |
| CCN(CC)CCNC(=O)Cc1ccc(C(=O)c2ccc(Cl)cc2)n1C [5-(p-Chlorobenzoyl)-N-(2-diethylaminoethyl)-1-methylpyrrole-2-acetamide] | 27 |
| CCNC(=O)Cc1ccc(C(=O)c2ccc(Cl)cc2)n1C [5-(p-Chlorobenzoyl)-N-ethyl-1-methylpyrrole-2-acetamide] | 25 |
| O=C(O)Cc1ccc(C(=O)c2ccc(Cl)cc2)[nH]1 [5-(p-Chlorobenzoyl)-pyrrole-2-acetic acid] | 32 |
| CCC(C(=O)O)c1ccc(C(=O)c2ccc(Cl)cc2)n1C (stereo not drawn) [5-(p-Chlorobenzoyl)-α-ethyl-1-methylpyrrole-2-acetic acid] | 22 |
| Cn1c(CC(=O)O)ccc1C(=O)c1ccc(N)cc1 [5-(p-aminobenzoyl)-do, 5-(p-Aminobenzoyl)-1-methylpyrrole-2-acetic acid] | 23 |
| Cn1c(CC(=O)O)ccc1C(=O)c1ccc(Br)cc1 [5-(p-bromobenzoyl)-do, 5-(p-bromobenzoyl)-1-methylpyrrole-2-acetic acid] | 42 |
| Cn1c(CC(=O)O)ccc1C(=O)c1ccc(F)cc1 [5-(p-fluorobenzoyl)-do, 5-(p-fluorobenzoyl)-1-methylpyrrole-2-acetic acid] | 42 |
| COc1ccc(C(=O)c2ccc(CC(=O)O)n2C)cc1 [5-(p-methoxybenzoyl)-do, 5-(p-Anisoyl)-1-methylpyrrole-2-acetic acid] | 42 |
| Cc1ccc(C(=O)c2ccc(CC(=O)O)n2C)cc1 [5-(p-methylbenzoyl)-do, 5-(p-Toluoyl)-1-methylpyrrole-2-acetic acid] | 44 |
| Cn1c(CC(=O)O)ccc1C(=O)c1ccc(C(F)(F)F)cc1 [5-(p-trifluoromethylbenzoyl)-do, 1-methyl-5-(p-trifluoromethylbenzoyl)-pyrrole-2-acetic acid] | 60 |
| CCOC(=O)Cc1ccc(C(=O)c2ccc(Cl)cc2)n1C [Ethyl 5-(p-chlorobenzoyl)-1-methylpyrrole-2-acetate] | 37 |
| Cn1c(CC(=O)O)ccc1C(=O)c1ccccc1 [Example 5-benzoyl-do, 5-Benzoyl-1-methylpyrrole-2-acetic acid] | 38 |
| COC(=O)Cc1ccc(C(=O)c2ccc(Cl)cc2)n1C [Methyl 5-(p-chlorobenzoyl)-1-methylpyrrole-2-acetate] | 38 |

same assay, conditions: Rattus norvegicus, po, Table I; 50 mg/kg p.o.; read-out: % INHIBITION (Average 10 rats)

| SMILES | inhibition in vivo at 50 mg/kg [%] |
| --- | --- |
| CC(C(=O)O)c1ccc(C(=O)c2ccc(Cl)cc2)n1C (racemic) [5-(p-chlorobenzoyl)-α-methyl-1-methylpyrrole-2-acetic acid] | 56 |
| O=C(O)Cc1ccc(C(=O)c2ccc(Cl)cc2)n1Cc1ccccc1 [1-Benzyl-5-(p-chlorobenzoyl)-pyrrole-2-acetic acid] | 23 |
| Cn1c(CC(N)=O)ccc1C(=O)c1ccc(Cl)cc1 [5-(p-Chlorobenzoyl)-1-methylpyrrole-2-acetamide] | 35 |
| Cc1c(CC(=O)O)c[nH]c1C(=O)c1ccc(Cl)cc1 [5-(p-Chlorobenzoyl)-4-methylpyrrole-3-acetic acid] | 43 |

same assay, conditions: Rattus norvegicus, po, Table I; 100 mg/kg p.o.; read-out: % INHIBITION (Average 10 rats)

| SMILES | inhibition in vivo at 100 mg/kg [%] |
| --- | --- |
| CCn1c(CC(=O)O)ccc1C(=O)c1ccc(Cl)cc1 [5-(p-Chlorobenzoyl)-1-ethylpyrrole-2-acetic acid] | 43 |
| Cn1c(CC(=O)O)ccc1C(=O)c1ccc(C#N)cc1 [5-(p-cyanobenzoyl)-do, 5-(p-cyanobenzoyl)-1-methylpyrrole-2-acetic acid] | 20 |
| Cn1c(CC(=O)O)ccc1C(=O)c1ccc([N+](=O)[O-])cc1 [5-(p-nitrobenzoyl)-do, 5-(p-Nitrobenzoyl)-1-methylpyrrole-2-acetic acid] | 35 |
| Cc1cc(CC(=O)O)[nH]c1C(=O)c1ccccc1 [5-benzoyl-4-methylpyrrole-2-acetic acid, 5-Benzoyl-4-methylpyrrole-2-acetic acid] | 34 |

same assay, conditions: Table I; 25 mg/kg p.o.; 25 mg/kg

| SMILES | % INHIBITION (Average 10 rats) [%] |
| --- | --- |
| CC(C(=O)O)c1ccc(C(=O)c2ccc(Cl)cc2)n1C (single isomer, unassigned; (+)) [(+)-5-(p-chlorobenzoyl)-α-methyl-1-methylpyrrole-2-acetic ac] [(+)-5-(p-chlorobenzoyl)-1,α-dimethylpyrrole-2-acetic acid] | 62 |
| CC(C(=O)O)c1ccc(C(=O)c2ccc(Cl)cc2)n1C (single isomer, unassigned; (-)) [(-)-5-(p-chlorobenzoyl)-α-methyl-1-methylpyrrole-2-acetic ac] [(-)-5-(p-chlorobenzoyl)-1,α-dimethylpyrrole-2-acetic acid] | 24 |

same assay, conditions: dose of 2.5 mg/kg

| SMILES | inhibition [%] |
| --- | --- |
| Cc1cc(CC(=O)O)n(C)c1C(=O)c1ccc(Cl)cc1 [5-(p-chlorobenzoyl)-1,4-dimethylpyrrole-2-acetic acid] | 51 |

same assay, conditions: single oral dose 12.5 mg/kg

| SMILES | inhibition |
| --- | --- |
| Cn1c(CC(=O)O)ccc1C(=O)c1ccc(Cl)cc1 [5-(p-Chlorobenzoyl)-1-methylpyrrole-2-acetic acid] | about 35% |

same assay, conditions: single oral dose 25 mg/kg

| SMILES | inhibition |
| --- | --- |
| Cn1c(CC(=O)O)ccc1C(=O)c1ccc(Cl)cc1 [5-(p-Chlorobenzoyl)-1-methylpyrrole-2-acetic acid] | about 47% |

same assay, conditions: single oral doses of 50-100 mg/kg

| SMILES | inhibition |
| --- | --- |
| Cn1c(CC(=O)O)ccc1C(=O)c1ccc(Cl)cc1 [5-(p-Chlorobenzoyl)-1-methylpyrrole-2-acetic acid] | 45-53% |

system: cotton pellet granuloma; assay: cotton pellet granuloma assay: granuloma tissue formed around implanted cotton pellet; type: in vivo, rat (male Holtzman); conditions: 25 mg/kg orally, daily for seven days; water controls 110 mg
Procedure: In the cotton pellet granuloma assay, the ability of a compound, when administered orally to male Holtzman rats daily for seven days, to inhibit the amount of granuloma tissue formed in or around a cotton pellet implanted beneath the skin in the thoracic region of the animal is measured and compared to water controls. The method is described by Charles A. Winter and coworkers in J. Pharmacol., 141, 369 (1963). Analysis of variance is used to determine the significance of the results.

| SMILES | granuloma weight |
| --- | --- |
| COc1ccc(C(=O)c2ccc(CC(=O)O)n2C)cc1 [5-(p-methoxybenzoyl)-do, 5-(p-Anisoyl)-1-methylpyrrole-2-acetic acid] | about 71 mg |

same assay, conditions: 100 mg/kg orally, daily for seven days; water controls 115 mg

| SMILES | granuloma weight |
| --- | --- |
| Cn1c(CC#N)ccc1C(=O)c1ccc(Cl)cc1 [5-(p-Chlorobenzoyl)-1-methylpyrrole-2-acetonitrile] | about 98 mg |
